Legend:
[1] = Stability of bupivacaine within the composition on storage; assay type: physicochemical; conditions: 4° C.
Description: The same method was applied to determine the lidocaine release. A first assay confirmed that the bupivacaine within the composition is stable for 3 months at 4° C.

[2] = HPLC and MS analysis of bupivacaine after association and release from CDA; assay type: physicochemical; conditions: cold isostatic compression; three days in water at 37° C.; HPLC and MS vs native molecule
Description: Bupivacaine-loaded CDA (400 mg) was stirred in 5 ml of water for three days at 37° C. The aqueous solution was passed through a microfiltration membrane with a pore size of 0.22 μm. Several aliquots of this solution were diluted to working concentration with HPLC. An aliquot of this solution (1 ml) was extracted with 1 ml of dichloromethane (HiPerSolv for HPLC, VWR-BDH). The organic phase was dried over Na2SO4 for further MS studies. HPLC HP 1100 (C18 column, Inertsil 5 ODS-3), flow: 0.5 ml mn^−1, solvent: acetonitrile/water [80/20], injection volume: 10 μl, detection: 230 nm). The liquid phase was prepared by mixing Acetonitrile for HPLC Gradient Grade (VWR-BDH-Prolabo) with pure water. A thermo Electron Corporation DSQ II bench-top quadruple mass spectrometer fitted with a direct sample probe or GC, with chemical ionization (CI), was used for data acquisition and processing.

[3] = intrabone injection, percutaneous vertebroplastics; cited from earlier work
[4] = continuous intravenous administration; cited from earlier work

CCCCN1CCCCC1C(=O)Nc1c(C)cccc1C (centres unmarked) [bupivacaine]
stability of bupivacaine within the composition [1]: 3 months
integrity of bupivacaine after association with CDA granules and release [2]: remained unchanged

CCN(CC)CC(=O)Nc1c(C)cccc1C [lidocaine]
effectiveness versus antalgic protocol comprising nalbuphine and paracetamol [3]: comparable effectiveness
serum levels of lidocaine [3]: much below the toxic level
postoperative morphine intake [4]: reduction of the postoperative morphine intake

— US20140004207A1, “Analgesic Apatitic Calcium-Phosphate Cement” (priority 2008, published 2014)
